Measured values from US20080234262A1 (Wyeth, priority 2007, published 2008).

Experiments:
breast line MDA468 = experiment: In vitro cell culture growth assay (MTS), MDA468; type: cell-based, human; conditions: MDA468 cells, three days after drug treatment
Method in brief: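 MDA468 or LNCap cells received inhibitors one day after plating and were grown for three days. Viable cell density read by MTS conversion, absorbance 490 nm, expressed as percent of control growth versus vehicle-treated cells on the same plate.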

PI3K = PI3K (Homo sapiens, UniProt P42336); experiment: Fluorescence polarization assay for PI3K; type: biochemical; conditions: PI3Kα; read-out: PI3Kα IC50;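 also: PI3K kinase reaction on PIP2 with ATP, 30-60 min, product sensed by GST-GRP with red probe in fluorescence polarization (mP), controls without enzyme and at zero time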
Sequence of PI3K (P42336 whole entry): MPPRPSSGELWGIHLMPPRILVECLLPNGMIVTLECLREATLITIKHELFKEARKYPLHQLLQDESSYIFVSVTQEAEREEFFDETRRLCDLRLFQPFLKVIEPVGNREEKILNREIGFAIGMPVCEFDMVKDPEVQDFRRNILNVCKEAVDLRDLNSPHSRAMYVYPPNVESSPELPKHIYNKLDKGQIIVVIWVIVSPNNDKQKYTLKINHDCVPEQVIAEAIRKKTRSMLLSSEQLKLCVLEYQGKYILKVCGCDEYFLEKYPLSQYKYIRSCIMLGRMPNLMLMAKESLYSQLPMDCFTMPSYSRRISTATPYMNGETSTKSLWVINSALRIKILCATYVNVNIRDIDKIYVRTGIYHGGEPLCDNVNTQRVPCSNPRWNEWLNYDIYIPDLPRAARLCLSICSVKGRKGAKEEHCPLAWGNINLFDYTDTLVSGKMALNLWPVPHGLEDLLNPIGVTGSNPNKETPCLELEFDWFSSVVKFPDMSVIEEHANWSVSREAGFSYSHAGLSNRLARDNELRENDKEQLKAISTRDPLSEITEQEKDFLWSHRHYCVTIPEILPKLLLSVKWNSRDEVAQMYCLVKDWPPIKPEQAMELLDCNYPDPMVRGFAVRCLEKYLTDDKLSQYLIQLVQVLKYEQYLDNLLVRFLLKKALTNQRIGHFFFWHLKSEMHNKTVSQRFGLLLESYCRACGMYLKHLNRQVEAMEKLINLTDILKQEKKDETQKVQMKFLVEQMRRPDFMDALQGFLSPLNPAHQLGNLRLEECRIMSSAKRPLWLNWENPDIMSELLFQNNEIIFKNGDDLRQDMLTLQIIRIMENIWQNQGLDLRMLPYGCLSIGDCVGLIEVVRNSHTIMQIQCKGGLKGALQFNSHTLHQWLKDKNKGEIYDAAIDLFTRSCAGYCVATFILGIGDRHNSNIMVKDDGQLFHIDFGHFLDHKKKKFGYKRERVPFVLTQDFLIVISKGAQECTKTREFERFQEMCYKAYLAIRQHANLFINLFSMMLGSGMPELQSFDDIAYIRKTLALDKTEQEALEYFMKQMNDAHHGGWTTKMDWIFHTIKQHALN
Sequence of PI3K (P27986 whole entry partner): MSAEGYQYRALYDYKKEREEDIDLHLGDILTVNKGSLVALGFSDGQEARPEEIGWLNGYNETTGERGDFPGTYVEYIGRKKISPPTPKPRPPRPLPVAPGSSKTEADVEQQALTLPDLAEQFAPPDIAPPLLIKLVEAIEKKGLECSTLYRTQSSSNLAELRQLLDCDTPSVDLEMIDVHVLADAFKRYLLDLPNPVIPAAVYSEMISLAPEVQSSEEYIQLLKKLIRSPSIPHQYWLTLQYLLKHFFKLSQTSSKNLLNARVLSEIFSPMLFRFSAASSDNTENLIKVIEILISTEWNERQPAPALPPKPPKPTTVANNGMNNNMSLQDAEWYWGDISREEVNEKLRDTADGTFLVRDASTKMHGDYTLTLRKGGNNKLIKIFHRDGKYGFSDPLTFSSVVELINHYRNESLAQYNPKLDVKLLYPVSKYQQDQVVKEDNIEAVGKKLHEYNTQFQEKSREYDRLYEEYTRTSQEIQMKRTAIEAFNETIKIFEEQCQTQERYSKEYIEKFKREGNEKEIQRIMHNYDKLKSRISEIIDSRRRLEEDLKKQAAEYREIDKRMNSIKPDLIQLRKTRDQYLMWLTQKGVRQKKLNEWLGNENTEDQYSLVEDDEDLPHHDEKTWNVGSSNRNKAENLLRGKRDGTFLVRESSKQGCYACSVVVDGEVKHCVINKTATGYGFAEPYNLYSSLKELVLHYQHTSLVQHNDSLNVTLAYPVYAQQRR

prostate line LNCap = experiment: In vitro cell culture growth assay (MTS), LNCap; type: cell-based, human; conditions: LNCap cells, three days after drug treatment

Row | SMILES | IC50 (breast line MDA468; Homo sapiens, 72 h) [nM] | IC50 (PI3K) [nM] | IC50 (prostate line LNCap; Homo sapiens, LNCaP, 72 h) [nM] | IC50 (breast line MDA468) [nM] | IC50 (prostate line LNCap) [nM]
1 | O=CN1CCC(n2ncc3c(N4CCOCC4)nc(-c4ccc5[nH]ccc5c4)nc32)CC1 [Compound 251, 4-[6-(1H-indol-5-yl)-4-morpholin-4-yl-1H-pyrazolo[3,4-d]pyrimidin-1-yl]piperidine-1-carbaldehyde] | 3000 | 2800 | 1000 |  | 
2 | CNC(=O)Nc1ccc(-c2nc(N3CCOCC3)c3cnn(C4CCN(Cc5cncc(F)c5)CC4)c3n2)cc1 [Compound 637, 1-[4-(1-{1-[(5-fluoropyridin-3-yl)methyl]piperidin-4-yl}-4-morpholin-4-yl-1H-pyrazolo[3,4-d]pyrimidin-6-yl)phenyl]-3-methylurea] |  | 153 |  | 550 | 110
3 | O=C(NCCF)Nc1ccc(-c2nc(N3CCOCC3)c3cnn(CC(F)(F)F)c3n2)cc1 [Compound 790, 1-(2-fluoroethyl)-3-{4-[4-morpholin-4-yl-1-(2,2,2-trifluoroethyl)-1H-pyrazolo[3,4-d]pyrimidin-6-yl]phenyl}urea] | 150 | 314 | 60 |  | 
4 | C=CCN1CCC(n2ncc3c(N4CCOCC4)nc(-c4ccc(NC(=O)NC)cc4)nc32)CC1 [Compound 799, 1-{4-[1-(1-allylpiperidin-4-yl)-4-morpholin-4-yl-1H-pyrazolo[3,4-d]pyrimidin-6-yl]phenyl}-3-methylurea] | 510 | 72 | 140 |  | 
5 | CNCCNC(=O)Nc1ccc(-c2nc(N3CCOCC3)c3cnn(C4CCN(Cc5cccnc5)CC4)c3n2)cc1 [Compound 589, 1-[2-(methylamino)ethyl]-3-(4-{4-morpholin-4-yl-1-[1-(pyridin-3-ylmethyl)piperidin-4-yl]-1H-pyrazolo[3,4-d]pyrimidin-6-yl}phenyl)urea] | 1100 | 29 | 1200 |  | 
6 | CCNC(=NC#N)Nc1ccc(-c2nc(N3CCOCC3)c3cnn(C4CCN(Cc5cccnc5)CC4)c3n2)cc1 [Example 408, 2-cyano-1-ethyl-3-(4-{4-morpholin-4-yl-1-[1-(pyridin-3-ylmethyl)piperidin-4-yl]-1H-pyrazolo[3,4-d]pyrimidin-6-yl}phenyl)guanidine] | 3200 | 916 | 890 |  | 
7 | c1ccc(-n2ncc3c(N4CCOCC4)nc(-c4ccc5occc5c4)nc32)cc1 [Compound 117] | 60000 | 699 | 60000 |  | 
8 | CNC(=O)Nc1ccc(-c2nc(N3CCOCC3)c3cnn(C4CCN(Cc5ccc(F)nc5)CC4)c3n2)cc1 [Example 387, 1-[4-(1-{1-[(6-fluoropyridin-3-yl)methyl]piperidin-4-yl}-4-morpholin-4-yl-1H-pyrazolo[3,4-d]pyrimidin-6-yl)phenyl]-3-methylurea] | 100 | 109 | 35 |  | 
9 | NCc1cccc(-c2nc(N3CCOCC3)c3cnn(-c4ccccc4)c3n2)c1 [Compound 144] | 3800 | 627 | 2400 |  | 
10 | NCc1ccc(-c2nc(N3CCOCC3)c3cnn(-c4ccccc4)c3n2)cc1 [Compound 146] | 4000 | 457 | 1700 |  | 
11 | Oc1cccc(-c2nc(N3CCOCC3)c3cnn(CCN4CCCCC4)c3n2)c1 [Compound 126] | 13000 | 60 | 3300 |  | 
12 | CNC(=O)Nc1ccc(-c2nc(N3CCOCC3)c3cnn(C4CCN(C(=O)SC)CC4)c3n2)cc1 [Compound 761, S-methyl 4-(6-{4-[(methylcarbamoyl)amino]phenyl}-4-morpholin-4-yl-1H-pyrazolo[3,4-d]pyrimidin-1-yl)piperidine-1-carbothioate] | 120 | 72 | 50 |  | 
13 | O=C(NO)Nc1ccc(-c2nc(N3CCOCC3)c3cnn(-c4ccccc4)c3n2)cc1 [Example 293, 1-hydroxy-3-[4-(4-morpholin-4-yl-1-phenyl-1H-pyrazolo[3,4-d]pyrimidin-6-yl)phenyl]urea] | 1100 | 211 | 480 |  | 
